Reference: the supplement of paper PMC6965134
± gives the standard deviation of the averaged measurements. One block for each molecule: values may come before it.

Test: TIMS collisional cross section (CCS, N2) of the lipid ion; higher = larger ion cross section
Conditions: ionization mode: negative, one isomer drawn
Protocol: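 Lipid extracts of human plasma (NIST SRM 1950), mouse liver or HeLa cells were separated by nanoflow C18 LC (30 min gradient) and analysed by TIMS-PASEF on a timsTOF Pro. Ion mobility was calibrated with the Agilent tuning mix (negative mode ions) and converted to collisional cross sections (Mason–Schamp, N2).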

[1] = sample type: Human plasma, ion (formula + adduct): [C43H74NO8P-H] 1-
[2] = sample type: Mouse Liver, ion (formula + adduct): [C43H74NO8P-H] 1-
[3] = sample type: Mouse Liver, ion (formula + adduct): [C45H82NO8P-H] 1-
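Further: lipids from MTBE extraction, five replicate injections per sample, 100 ms TIMS ramp spanning 0.6–1.95 Vs/cm², lipid identity assigned from PASEF MS/MS spectra.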

Compound: CCCCC/C=C\C/C=C\C/C=C\C/C=C\CCCC(=O)O[C@H](COC(=O)CCCCCCCCCCCCCCCCCC)COP(=O)(O)OCCN [PE 19:0_20:4]
TIMS collisional cross section (sample type: Mouse Liver, ion (formula + adduct): [C44H80NO8P-H] 1-): 279.6 Å²

Compound: CC/C=C\C/C=C\C/C=C\C/C=C\C/C=C\C/C=C\CCC(=O)O[C@H](COC(=O)CCCCCCCCC/C=C\CCCCCCCC)COP(=O)(O)OCCN [PE 20:1_22:6]
TIMS collisional cross section (sample type: Mouse Liver, ion (formula + adduct): [C47H80NO8P-H] 1-): 285.8 Å²

Compound: CC/C=C\C/C=C\C/C=C\C/C=C\C/C=C\C/C=C\CCC(=O)O[C@H](COC(=O)CCCCCCCCC/C=C\C/C=C\CCCCC)COP(=O)(O)OCCN [PE 20:2_22:6]
TIMS collisional cross section (sample type: Mouse Liver, ion (formula + adduct): [C47H78NO8P-H] 1-): 283.4 Å²

Compound: CCCCC/C=C\C/C=C\C/C=C\CCCCCCC(=O)OC[C@H](COP(=O)(O)OCCN)OC(=O)CCCCCCCCCCCCCCC [PE 20:3_16:0]
TIMS collisional cross section (sample type: Mouse Liver, ion (formula + adduct): [C41H76NO8P-H] 1-): 271.1 Å²

Compound: CCCCC/C=C\C/C=C\C/C=C\CCCCCCC(=O)OC[C@H](COP(=O)(O)OCCN)OC(=O)CCCCCCCCCCCCCCCCC [PE 20:3_18:0]
TIMS collisional cross section (sample type: Mouse Liver, ion (formula + adduct): [C43H80NO8P-H] 1-): 277.3 Å²

Compound: CCCCC/C=C\C/C=C\C/C=C\C/C=C\CCCC(=O)OC[C@H](COP(=O)(O)OCCN)OC(=O)CCCCCCCCCCCCC [PE 20:4_14:0]
TIMS collisional cross section (sample type: Mouse Liver, ion (formula + adduct): [C39H70NO8P-H] 1-): 263.7 Å²

Compound: CCCCC/C=C\C/C=C\C/C=C\C/C=C\CCCC(=O)OC[C@H](COP(=O)(O)OCCN)OC(=O)CCCCCCC/C=C\C/C=C\CCCCC [PE 20:4_18:2@]
TIMS collisional cross section [1]: 275.6 ± 3.2 Å²

Compound: CCCCC/C=C\C/C=C\C/C=C\C/C=C\CCCC(=O)OC[C@H](COP(=O)(O)OCCN)OC(=O)CCCCCCC/C=C\C/C=C\CCCCC [PE 20:4_18:2]
TIMS collisional cross section [2]: 272.7 Å²

Compound: CCCCC/C=C\C/C=C\C/C=C\C/C=C\CCCC(=O)OC[C@H](COP(=O)(O)OCCN)OC(=O)CCCCCCCCCCCCCCCCCCC [PE 20:4_20:0]
TIMS collisional cross section [3]: 281.8 Å²

Compound: CCCCC/C=C\C/C=C\C/C=C\C/C=C\CCCC(=O)OC[C@H](COP(=O)(O)OCCN)OC(=O)CCCCCCCCCCCCCCCCCCCCC [PE 20:4_22:0]
TIMS collisional cross section (sample type: Mouse Liver, ion (formula + adduct): [C47H86NO8P-H] 1-): 288 Å²

Compound: CC/C=C\C/C=C\C/C=C\C/C=C\C/C=C\C/C=C\CCC(=O)O[C@H](COC(=O)CCC/C=C\C/C=C\C/C=C\C/C=C\CCCCC)COP(=O)(O)OCCN [PE 20:4_22:6]
TIMS collisional cross section (sample type: Mouse Liver, ion (formula + adduct): [C47H74NO8P-H] 1-): 280.6 Å²

Compound: CC/C=C\C/C=C\C/C=C\C/C=C\C/C=C\CCCC(=O)OC[C@H](COP(=O)(O)OCCN)OC(=O)CCCCCCCCCCCCCCCCC [PE 20:5@_18:0]
TIMS collisional cross section (sample type: Human plasma, ion (formula + adduct): [C43H76NO8P-H] 1-): 276.2 Å²

Compound: CC/C=C\C/C=C\C/C=C\C/C=C\C/C=C\CCCC(=O)OC[C@H](COP(=O)(O)OCCN)OC(=O)CCCCCCCCCCCCCCC [PE 20:5_16:0]
TIMS collisional cross section (sample type: Human plasma, ion (formula + adduct): [C41H72NO8P-H] 1-): 269.4 Å²
TIMS collisional cross section (sample type: Mouse Liver, ion (formula + adduct): [C41H72NO8P-H] 1-): 269.4 Å²

Compound: CC/C=C\C/C=C\C/C=C\C/C=C\C/C=C\CCCC(=O)OC[C@H](COP(=O)(O)OCCN)OC(=O)CCCCCCC/C=C\CCCCCCCC [PE 20:5_18:1]
TIMS collisional cross section [1]: 274.5 Å²
TIMS collisional cross section [2]: 273.9 Å²

Compound: CCCCC/C=C\C/C=C\C/C=C\C/C=C\CCCCCC(=O)OC[C@H](COP(=O)(O)OCCN)OC(=O)CCCCCCCCCCCCCCCCC [PE 22:4_18:0]
TIMS collisional cross section (sample type: Human plasma, ion (formula + adduct): [C45H82NO8P-H] 1-): 283.6 Å²
TIMS collisional cross section [3]: 283 Å²

Compound: CC/C=C\C/C=C\C/C=C\C/C=C\C/C=C\C/C=C\CCC(=O)OC[C@H](COP(=O)(O)OCCN)OC(=O)CCCCCCC/C=C\CCCCCCCC [PE 22:6@_18:1]
TIMS collisional cross section (sample type: Human plasma, ion (formula + adduct): [C45H76NO8P-H] 1-): 278.4 Å²

Compound: CC/C=C\C/C=C\C/C=C\C/C=C\C/C=C\C/C=C\CCC(=O)OC[C@H](COP(=O)(O)OCCN)OC(=O)CCC/C=C\C/C=C\C/C=C\C/C=C\C/C=C\CC [PE 22:6@_20:5]
TIMS collisional cross section (sample type: Mouse Liver, ion (formula + adduct): [C47H72NO8P-H] 1-): 279.4 Å²

Compound: CC/C=C\C/C=C\C/C=C\C/C=C\C/C=C\C/C=C\CCC(=O)OC[C@H](COP(=O)(O)OCCN)OC(=O)CCCCCCCCCCCCC [PE 22:6_14:0]
TIMS collisional cross section (sample type: Mouse Liver, ion (formula + adduct): [C41H70NO8P-H] 1-): 268.2 Å²

Compound: CC/C=C\C/C=C\C/C=C\C/C=C\C/C=C\C/C=C\CCC(=O)OC[C@H](COP(=O)(O)OCCN)OC(=O)CCCCCCC/C=C\CCCCCC [PE 22:6_16:1]
TIMS collisional cross section (sample type: Mouse Liver, ion (formula + adduct): [C43H72NO8P-H] 1-): 272.7 Å²

Compound: CC/C=C\C/C=C\C/C=C\C/C=C\C/C=C\C/C=C\CCC(=O)OC[C@H](COP(=O)(O)OCCN)OC(=O)CCCCCCC/C=C\CCCCCCCC [PE 22:6_18:1]
TIMS collisional cross section (sample type: Mouse Liver, ion (formula + adduct): [C45H76NO8P-H] 1-): 279.5 ± 0.85 Å²

The remaining lines, values ahead:

TIMS collisional cross section (sample type: Mouse Liver, ion (formula + adduct): [C45H74NO8P-H] 1-): 276.6 Å²
Compound: CC/C=C\C/C=C\C/C=C\C/C=C\C/C=C\C/C=C\CCC(=O)OC[C@H](COP(=O)(O)OCCN)OC(=O)CCCCCCC/C=C\C/C=C\CCCCC [PE 22:6_18:2]

TIMS collisional cross section (sample type: Mouse Liver, ion (formula + adduct): [C47H82NO8P-H] 1-): 287.5 Å²
Compound: CC/C=C\C/C=C\C/C=C\C/C=C\C/C=C\C/C=C\CCC(=O)OC[C@H](COP(=O)(O)OCCN)OC(=O)CCCCCCCCCCCCCCCCCCC [PE 22:6_20:0]

TIMS collisional cross section (sample type: Mouse Liver, ion (formula + adduct): [C49H74NO8P-H] 1-): 283.9 Å²
Compound: CC/C=C\C/C=C\C/C=C\C/C=C\C/C=C\C/C=C\CCC(=O)OC[C@H](COP(=O)(O)OCCN)OC(=O)CC/C=C\C/C=C\C/C=C\C/C=C\C/C=C\C/C=C\CC [PE 22:6_22:6]

TIMS collisional cross section (sample type: Human plasma, ion (formula + adduct): [C41H74NO7P+AcO] 1-): 280.1 Å²
Compound: CC/C=C\C/C=C\C/C=C\C/C=C\C/C=C\CCCC(=O)O[C@H](COCCCCCCCCCCCCCCCC)COP(=O)(O)OCCN [PE O- 16:0@_20:5]

TIMS collisional cross section (sample type: Human plasma, ion (formula + adduct): [C43H76NO7P-H] 1-): 274 Å²
TIMS collisional cross section (sample type: Mouse Liver, ion (formula + adduct): [C43H76NO7P-H] 1-): 273.4 Å²
Compound: CC/C=C\C/C=C\C/C=C\C/C=C\C/C=C\C/C=C\CCC(=O)O[C@H](COCCCCCCCCCCCCCCCC)COP(=O)(O)OCCN [PE O- 16:0@_22:6]

TIMS collisional cross section (sample type: Human plasma, ion (formula + adduct): [C38H78NO7P+AcO] 1-): 287.3 Å²
Compound: CCCCCCCCCCCCCCCCCCOC[C@H](COP(=O)(O)OCCN)OC(=O)CCCCCCCCCCCCCC [PE O- 18:0@_15:0]

TIMS collisional cross section (sample type: Human plasma, ion (formula + adduct): [C40H80NO7P+AcO] 1-): 292.4 Å²
Compound: CCCCCCC/C=C\CCCCCCCC(=O)O[C@H](COCCCCCCCCCCCCCCCCCC)COP(=O)(O)OCCN [PE O- 18:0@_17:1]

TIMS collisional cross section (sample type: Human plasma, ion (formula + adduct): [C42H86NO7P+AcO] 1-): 298 Å²
Compound: CCCCCCCCCCCCCCCCCCOC[C@H](COP(=O)(O)OCCN)OC(=O)CCCCCCCCCCCCCCCCCC [PE O- 18:0@_19:0]

TIMS collisional cross section (sample type: Mouse Liver, ion (formula + adduct): [C40H82NO7P-CH3] 1-): 267.9 Å²
Compound: CCCCCCCCCCCCCCCCCCOC[C@H](COP(=O)(O)OCCN)OC(=O)CCCCCCCCCCCCCCCC [PE O- 18:0_17:0]

TIMS collisional cross section (sample type: Human plasma, ion (formula + adduct): [C44H88NO7P+AcO] 1-): 303.7 Å²
Compound: CCCCCCCCC/C=C\CCCCCCCC(=O)O[C@H](COCCCCCCCCCCCCCCCCCCCC)COP(=O)(O)OCCN [PE O- 20:0@_19:1]

TIMS collisional cross section (sample type: Human plasma, ion (formula + adduct): [C39H74NO7P-H] 1-): 265.6 Å²
Compound: CCCCC/C=C\C/C=C\CCCCCCCC(=O)O[C@H](CO/C=C\CCCCCCCCCCCCCC)COP(=O)(O)OCCN [PE P- 16:0@_18:2]

TIMS collisional cross section (sample type: Human plasma, ion (formula + adduct): [C39H70NO7P+AcO] 1-): 275.7 Å²
Compound: CC/C=C\C/C=C\C/C=C\C/C=C\CCCCC(=O)O[C@H](CO/C=C\CCCCCCCCCCCCCC)COP(=O)(O)OCCN [PE P- 16:0@_18:4]

TIMS collisional cross section (sample type: Mouse Liver, ion (formula + adduct): [C41H80NO7P-H] 1-): 273.5 Å²
Compound: CCCCCCCC/C=C\CCCCCCCCCC(=O)O[C@H](CO/C=C\CCCCCCCCCCCCCC)COP(=O)(O)OCCN [PE P- 16:0@_20:1]

TIMS collisional cross section (sample type: Human plasma, ion (formula + adduct): [C41H76NO7P-H] 1-): 271.2 Å²
TIMS collisional cross section (sample type: Mouse Liver, ion (formula + adduct): [C41H76NO7P-H] 1-): 271.2 Å²
Compound: CCCCC/C=C\C/C=C\C/C=C\CCCCCCC(=O)O[C@H](CO/C=C\CCCCCCCCCCCCCC)COP(=O)(O)OCCN [PE P- 16:0@_20:3]

TIMS collisional cross section (sample type: Human plasma, ion (formula + adduct): [C41H72NO7P+AcO] 1-): 283.1 Å²
TIMS collisional cross section (sample type: Human plasma, ion (formula + adduct): [C41H72NO7P-H] 1-): 268.9 Å²
Compound: CC/C=C\C/C=C\C/C=C\C/C=C\C/C=C\CCCC(=O)O[C@H](CO/C=C\CCCCCCCCCCCCCC)COP(=O)(O)OCCN [PE P- 16:0@_20:5]
